# Experimental data reported in patent US12264163B2, “Compounds and methods for treating fibrotic pathologies” (Mayo Foundation for Medical Education and Research, priority 2019, dated 2025).
# Structures can show the parent of a compound that is named as a salt. Where two headings read alike, the source gives them in different places.
# How the values were obtained:
# YAP/TAZ [1] = experiment: YAP/TAZ nuclear localization in IPF patient-derived lung fibroblasts treated with dopaminergic agonists; assay type: cell-based, human; conditions: 10 μM, 2 hours
# Procedure, shortened: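 Fibroblasts from IPF patients (N=4 patient samples) were exposed to dopaminergic agonists at 10 μM for 2 h before fixation. Cells were immunostained for YAP/TAZ with DAPI counterstain and imaged at 4×. Percent nuclear YAP/TAZ localization was quantified by automated image analysis.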
# αSMA [2] = experiment: αSMA intensity (fibroblast activation) in IPF patient-derived lung fibroblasts + TGFβ, dopaminergic agonist library; assay type: cell-based, human; conditions: Homo sapiens, SMA, 72 h, 1 μM + TGFβ, read-out: αSMA intensity (% of DMSO control)
# Protocol: Media was then exchanged for the indicated conditions for each experiment. […] Cells or tissue sections were incubated overnight with mouse monoclonal antibody against αSMA (Sigma-Aldrich F3777), and/or a rabbit monoclonal antibody against YAP/TAZ (Cell Signaling D24E4) diluted 1:200 in PBS with 1% BSA. Cells were then washed and exposed to flourescence-conjugated secondary antibodies (Invitrogen) diluted 1:1000 and DAPI (Thermo Fisher Scientific). Images were taken with a Cytation5 (BioTek) microscope. For scoring αSMA positive cells (FIG. 12), an observer blinded to the treatment conditions counted αSMA-positive cells using a visual threshold for bright fibrous staining; a minimum of 200 cells was counted for each condition. YAP/TAZ localization was quantified (FIGS. 6-10, 24-26, and 29-30) using Gen5 (Biotek) software. Images were taken at 4× magnification of both DAPI and YAP/TAZ staining. […] Quantification of double positive (YAP/TAZ and αSMA) cells from lung tissue sections (FIG. 17-21) was performed similarly; however separate thresholds were established for both YAP/TAZ and αSMA. A minimum of 4000 cells was quantified for each mouse.
# [3] = cited from earlier work
# αSMA [4] = experiment: Fibroblast activation: αSMA intensity in TGFβ-stimulated adult lung fibroblasts; assay type: cell-based; conditions: Homo sapiens, SMA, 2 ng/mL TGFβ 96 hours, compound every 48 hours
# Protocol: (§1) FIG. 70 contains a line plot showing that compound CTC-3 inhibits fibroblast activation. Adult lung fibroblasts plated into 96-well plates, stimulated with 2 ng/mL TGFβ for 96 hours and treated with the indicated concentration of compounds every 48 hours. Imaging and quantification of αSMA intensity performed through automation using a Cytation 5. (IC50 is 0.3 μM).
# as §1, with “71” for “70”, “CTC-6” for “CTC-3”, “5.” for “5. (IC50 is 0.3 μM).”
# as §1, with “91A” for “70”, “1” for “CTC-3”, “5.” for “5. (IC50 is 0.3 μM).”
# Alpha-smooth muscle actin (αSMA) staining is a well-defined marker of fibroblast activation observed in wound healing and tissue fibrosis. […] Imaging and quantification of αSMA intensity performed through automation using a Cytation 5.
# Collagen I = Collagen I deposition by TGFβ-stimulated adult lung fibroblasts (LI-COR Odyssey); assay type: cell-based; conditions: Homo sapiens, Fibroblast, 2 ng/mL TGFβ 96 hours, compound every 48 hours
# Protocol: as §1, with “72” for “70”, “Collagen I deposition.” for “fibroblast activation.”, “Collagen I” for “αSMA”, “LI-COR Odyssey.” for “Cytation 5. (IC50 is 0.3 μM).”
# as §1, with “73” for “70”, “CTC-6” for “CTC-3”, “Collagen I deposition.” for “fibroblast activation.”, “Collagen I” for “αSMA”, “LI-COR Odyssey.” for “Cytation 5.”, “0.4” for “0.3”
# as §1, with “91B” for “70”, “1” for “CTC-3”, “Collagen I deposition.” for “fibroblast activation.”, “Collagen I” for “αSMA”, “LI-COR Odyssey.” for “Cytation 5. (IC50 is 0.3 μM).”
# Imaging and quantification of collagen I intensity performed through automation using a LI-COR Odyssey.
# lung fibroblasts = experiment: Fibroblast proliferation (counting DAPI nuclei); assay type: cell-based, human; conditions: adult lung fibroblasts, 2 ng/mL TGFβ, DAPI nuclei count
# Protocol: IPF fibroblast and Normal lung fibroblast co-culture proliferation. Cell are prelabelled with fluorescent dyes (red and green) and then cocultured at a ratio of about 1:1 in 96 well plates. Cell counts are determined every 24 hours and plotted as a ratio of IPF/HLF cells. In the control wells the IPF cells outgrow and take over the well. N=2.
# Proliferation of lung fibroblasts (IMR-90 cells) measured for 4 days in the presence of GPCR agonists ET-1 (100 nM) and LPA (10 μM)+/−10 μM DHX. Cells were fixed and counted with DAPI at the end of each day. N=3 technical triplicates.
# Adult lung fibroblasts plated into 96-well plates, stimulated with 2 ng/mL TGFβ and compounds at the indicated concentration. Proliferation determined by fixing and counting DAPI nuclei using a Cytation 5. N=2.
# Fibroblasts were stimulated with 2 ng/mL TGFβ and treated with compound 1 (MS-9) at the indicated concentration (0.1 μM, 1 μM, and 10 μM). Proliferation determined by fixing and counting DAPI nuclei using a Cytation.
# YAP/TAZ [5] = experiment: YAP/TAZ nuclear localization in adult lung fibroblasts, dose response (Cytation 5); assay type: cell-based; conditions: Homo sapiens, Fibroblast, 2 h, adult lung fibroblasts sparsely plated, treated 2 hours; read-out: IC50, inhibition of YAP/TAZ nuclear localization
# Protocol: Adult lung fibroblasts (N=2) sparsely plated into 96-well plates. Treated for 2 hours with compounds prior to fixing and immunostaining for YAP/TAZ.
# (§2) Immunofluorescence Microscopy: Cells were plated into 96 well plates (Corning 3603) in their specific growth media and allowed to attach (8 hours). Media was then exchanged for the indicated conditions for each experiment. Cells were fixed in 3.7% formalin (Sigma-Aldrich), permeabilized in 0.25% Triton X-100 (Sigma-Aldrich) and then blocked with 1% BSA for 1 h. Cells or tissue sections were incubated overnight with mouse monoclonal antibody against αSMA (Sigma-Aldrich F3777), and/or a rabbit monoclonal antibody against YAP/TAZ (Cell Signaling D24E4) diluted 1:200 in PBS with 1% BSA. Cells were then washed and exposed to flourescence-conjugated secondary antibodies (Invitrogen) diluted 1:1000 and DAPI (Thermo Fisher Scientific). Images were taken with a Cytation5 (BioTek) microscope. For scoring αSMA positive cells (FIG. 12), an observer blinded to the treatment conditions counted αSMA-positive cells using a visual threshold for bright fibrous staining; a minimum of 200 cells was counted for each condition. YAP/TAZ localization was quantified (FIGS. 6-10, 24-26, and 29-30) using Gen5 (Biotek) software. Images were taken at 4× magnification of both DAPI and YAP/TAZ staining. […] Quantification of double positive (YAP/TAZ and αSMA) cells from lung tissue sections (FIG. 17-21) was performed similarly; however separate thresholds were established for both YAP/TAZ and αSMA. A minimum of 4000 cells was quantified for each mouse.
# YAP/TAZ [6] = experiment: YAP/TAZ nuclear localization in IMR-90 and other fibroblasts / mesenchymal cells (immunofluorescence); assay type: cell-based, human; conditions: fibroblasts / mesenchymal cells on plastic, 2 hours
# Protocol: Selective agonists of dopamine receptor D1 with varying efficacy inhibit YAP/TAZ nuclear localization; this effect can be overcome by treatment with a DRD1 receptor antagonist (SCH 39166, 3 μM), (Dihydrexidine, 10 μM). IMR-90 cells treated 2 hours prior to fixation. N=4 (****p<0.0001 vs. 0.10% DMSO vehicle control). Scale bar represents 100 μm.
# In each case DHX treatment (10 μM) can reverse this effect on YAP/TAZ. IMR-90 cells plated densely onto plastic cell culture plates for 24 hours in media containing 0.1% FBS, treated for 2 hours prior to fixation. N=4 (****p<0.0001 vs. 0.1% DMSO vehicle control), (++++p<0.0001 vs. the respective stimulated agonist ET-1, LPA, or 5-HT). Scale bar represents 100 μm.
# Mesenchymal cells derived from lung (IMR-90 and IPF-FBs) hepatic stellate cells (HSC), human adult cardiac fibroblasts, (HACF) and human dermal fibroblasts (HDF) were plated densely (Confluent) or sparsely (Control and all remaining conditions) onto plastic cell culture plates for 24 hours in media containing 0.10% FBS, treated for 2 hours with Rho kinase inhibitor Y27632, adenylate cyclase activator forskolin and DHX. N=4, Cells that were positive for nuclear YAP/TAZ were quantified by automated image analysis.
# as §2
Compound,Nuclear localization (% of total cells) (YAP/TAZ [1]; IPF-1 patient fibroblasts),Nuclear localization (% of total cells) (YAP/TAZ [1]; IPF-2 patient fibroblasts),Nuclear localization (% of total cells) (YAP/TAZ [1]; IPF-3 patient fibroblasts),Nuclear localization (% of total cells) (YAP/TAZ [1]; IPF-4 patient fibroblasts),activity at 1 µM (αSMA [2]; IPF-1 patient fibroblasts) [%],activity at 1 µM (αSMA [2]; IPF-2 patient fibroblasts) [%],activity at 1 µM (αSMA [2]; IPF-3 patient fibroblasts) [%],activity at 1 µM (αSMA [2]; IPF-4 patient fibroblasts) [%],oxidation / stability at physiological pH [3],IC50 (αSMA [4]) [µM],IC50 (Collagen I) [µM],fibroblast proliferation (lung fibroblasts),IC50 (YAP/TAZ [5]) [µM],YAP/TAZ nuclear localization (YAP/TAZ [6])
"CN1CCc2cccc3c2[C@H]1Cc1ccc(O)c(O)c1-3 [(R)-(−)-Apomorphine•HCl, (R)-(−)-Apomorphine]",29.21 % of total cells,31.97 % of total cells,27.47 % of total cells,17.86 % of total cells,7.07,1.17,0.962,33.7,oxidized into the inactive quinone,,,,,
NCC1OC(C2CCOCC2)Cc2c1ccc(O)c2O (stereo not shown) [CTC-3],,,,,,,,,,0.3,0.7,inhibits fibroblast proliferation,,
NCC1OC(c2ccncc2)Cc2c1ccc(O)c2O (stereo not shown) [CTC-6],,,,,,,,,,0.1,0.4,inhibits fibroblast proliferation,0.062,
"Oc1ccc(C2CNCCc3c2cc(O)c(O)c3Cl)cc1 (stereo not shown) [Fenoldopam•HCl, Fenoldopam]",68.1 % of total cells,50.32 % of total cells,66.64 % of total cells,63 % of total cells,,,,,stable at physiological pH,,,,,reduced nuclear localization of YAP/TAZ
